Calls of active or inactive are those of the source.
Key:
[1] = viability of PTEN-deleted HCT116 cells – cell-based, HCT116 PTEN knockout, dose response (AID 1047); assay type: functional;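 note: HCT116 colon tumor cells with PTEN knocked out; cells exposed to compound for 60 hours before readout; potency for loss of cell viability measured by luminescence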
Large T antigen = Large T antigen (Simian virus 40, UniProt P03070); assay type: functional, Betapolyomavirus macacae;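 note: Confirmatory-stage PubChem screen for compounds that inhibit SV40 T antigen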
Chain of Large T antigen (P03070 whole entry): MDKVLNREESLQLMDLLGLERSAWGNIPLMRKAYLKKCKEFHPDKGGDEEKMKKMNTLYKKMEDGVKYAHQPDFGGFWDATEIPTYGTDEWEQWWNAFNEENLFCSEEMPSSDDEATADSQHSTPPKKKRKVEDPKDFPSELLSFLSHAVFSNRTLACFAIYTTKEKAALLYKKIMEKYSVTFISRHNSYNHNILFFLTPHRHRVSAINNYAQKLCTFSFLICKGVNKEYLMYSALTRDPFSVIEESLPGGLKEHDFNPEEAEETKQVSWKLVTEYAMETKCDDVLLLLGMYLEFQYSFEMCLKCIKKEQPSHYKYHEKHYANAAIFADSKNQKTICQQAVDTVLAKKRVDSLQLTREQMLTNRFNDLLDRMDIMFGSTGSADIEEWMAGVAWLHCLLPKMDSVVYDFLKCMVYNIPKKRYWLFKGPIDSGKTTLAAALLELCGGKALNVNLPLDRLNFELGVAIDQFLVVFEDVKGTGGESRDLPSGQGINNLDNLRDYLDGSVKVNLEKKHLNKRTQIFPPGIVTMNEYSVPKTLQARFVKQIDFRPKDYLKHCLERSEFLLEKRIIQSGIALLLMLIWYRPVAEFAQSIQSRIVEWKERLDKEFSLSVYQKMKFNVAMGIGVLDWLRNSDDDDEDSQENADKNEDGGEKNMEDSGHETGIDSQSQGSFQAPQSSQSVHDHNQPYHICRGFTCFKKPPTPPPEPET

[2] = viability of HCT116 lacking mutant beta-catenin – cell-based, human colon tumor, dose response (AID 1045); assay type: functional;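 note: HCT116 colon tumor cells with beta catenin knocked out; cells exposed to compound for 60 hours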
[3] = molecular target: T1, Microphthalmia-associated transcription factor (Homo sapiens, UniProt O75030); assay: reducers of TRPM1 reporter luminescence, concentration series – cell-based, SK-MEL-5, cherry-picked, set 3, MITF inhibitor project, dose response (AID 493073); assay type: functional;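 note: SK-MEL-5 melanoma cells with luciferase driven by the MITF target TRPM1 promoter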
T1 sequence (O75030 whole entry): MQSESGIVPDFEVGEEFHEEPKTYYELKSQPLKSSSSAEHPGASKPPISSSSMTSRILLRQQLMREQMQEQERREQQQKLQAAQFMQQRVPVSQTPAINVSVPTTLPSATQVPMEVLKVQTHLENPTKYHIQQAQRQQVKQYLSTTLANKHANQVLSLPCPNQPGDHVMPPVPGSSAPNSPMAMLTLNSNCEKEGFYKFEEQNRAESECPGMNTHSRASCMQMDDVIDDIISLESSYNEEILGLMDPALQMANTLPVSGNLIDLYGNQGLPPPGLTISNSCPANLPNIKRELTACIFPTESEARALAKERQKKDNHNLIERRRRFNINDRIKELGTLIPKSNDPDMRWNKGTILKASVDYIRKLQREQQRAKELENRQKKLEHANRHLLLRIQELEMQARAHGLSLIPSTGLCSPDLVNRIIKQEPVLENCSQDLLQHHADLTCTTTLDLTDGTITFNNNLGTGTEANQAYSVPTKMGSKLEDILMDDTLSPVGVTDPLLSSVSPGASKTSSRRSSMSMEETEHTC

[4] = molecular target: T2, Mannose-6-phosphate isomerase (Homo sapiens, UniProt P34949); assay: MPI inhibition at elevated mannose 6-phosphate – biochemical, fluorescence intensity, high mannose 6-phosphate, primary screen (AID 1220)
T2 sequence (P34949 whole entry): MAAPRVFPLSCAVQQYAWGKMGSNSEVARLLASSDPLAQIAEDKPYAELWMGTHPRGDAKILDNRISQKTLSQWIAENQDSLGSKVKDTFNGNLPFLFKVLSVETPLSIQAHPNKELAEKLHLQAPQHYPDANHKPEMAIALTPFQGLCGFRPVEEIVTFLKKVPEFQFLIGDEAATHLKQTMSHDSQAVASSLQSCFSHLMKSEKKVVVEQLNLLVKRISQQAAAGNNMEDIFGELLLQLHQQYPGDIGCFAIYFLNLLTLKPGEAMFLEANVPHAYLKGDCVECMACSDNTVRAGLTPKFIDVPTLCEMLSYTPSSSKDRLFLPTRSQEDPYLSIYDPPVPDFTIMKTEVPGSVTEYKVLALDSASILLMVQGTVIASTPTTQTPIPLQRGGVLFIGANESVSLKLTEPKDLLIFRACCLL

cells [5] = assay type: functional
[6] = Vero E6 cell cytotoxicity, dose response, cytotoxicity control for non-replicating M. tuberculosis project, secondary assay (AID 492998); assay type: functional, VeroE6; settings: Vero C1008
Vero = assay: cells; assay type: functional; settings: Chlorocebus sabaeus
[7] = THP-1 cell cytotoxicity, dose response, cytotoxicity control for non-replicating M. tuberculosis project (AID 489025); assay type: functional
[8] = molecular target: Heat shock protein HSP 90-alpha (Homo sapiens, UniProt P07900); assay type: functional, organism-based
[9] = molecular target: T3, Polyadenylate-binding protein 1 (Homo sapiens, UniProt P11940); assay: MLLE binding blockers, Cy5 peptide tracer – biochemical, fluorescence polarization, Cy5-PAM2 peptide, secondary, miRNA deadenylation inhibitor project, dose response (AID 602260); assay type: functional; settings: read-out: IC50_Mean
T3 sequence (P11940 whole entry): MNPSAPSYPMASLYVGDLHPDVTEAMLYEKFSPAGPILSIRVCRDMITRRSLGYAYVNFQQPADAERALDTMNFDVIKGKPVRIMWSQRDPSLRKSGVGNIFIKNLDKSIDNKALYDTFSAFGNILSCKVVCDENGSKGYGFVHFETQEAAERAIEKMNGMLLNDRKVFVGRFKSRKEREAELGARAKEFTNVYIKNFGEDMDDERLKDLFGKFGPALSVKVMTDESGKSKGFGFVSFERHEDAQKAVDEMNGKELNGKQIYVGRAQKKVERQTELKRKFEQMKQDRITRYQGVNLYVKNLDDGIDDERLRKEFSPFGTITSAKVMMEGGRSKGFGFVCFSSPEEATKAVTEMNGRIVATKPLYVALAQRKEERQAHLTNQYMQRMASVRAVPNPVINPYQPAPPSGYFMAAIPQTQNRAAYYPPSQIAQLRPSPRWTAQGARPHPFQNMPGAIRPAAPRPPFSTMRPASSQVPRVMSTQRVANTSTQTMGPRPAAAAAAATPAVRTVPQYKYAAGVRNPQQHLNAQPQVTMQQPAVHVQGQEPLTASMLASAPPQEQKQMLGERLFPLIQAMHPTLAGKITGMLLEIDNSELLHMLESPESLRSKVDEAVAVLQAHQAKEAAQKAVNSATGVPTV

[10] = molecular target: T4, High affinity choline transporter 1 (Homo sapiens, UniProt Q9GZV3); assay: human choline transporter blockers, potency – cell-based, 5-point CRC, membrane potential dye, dose response (AID 504840); assay type: functional
T4 sequence (Q9GZV3 whole entry): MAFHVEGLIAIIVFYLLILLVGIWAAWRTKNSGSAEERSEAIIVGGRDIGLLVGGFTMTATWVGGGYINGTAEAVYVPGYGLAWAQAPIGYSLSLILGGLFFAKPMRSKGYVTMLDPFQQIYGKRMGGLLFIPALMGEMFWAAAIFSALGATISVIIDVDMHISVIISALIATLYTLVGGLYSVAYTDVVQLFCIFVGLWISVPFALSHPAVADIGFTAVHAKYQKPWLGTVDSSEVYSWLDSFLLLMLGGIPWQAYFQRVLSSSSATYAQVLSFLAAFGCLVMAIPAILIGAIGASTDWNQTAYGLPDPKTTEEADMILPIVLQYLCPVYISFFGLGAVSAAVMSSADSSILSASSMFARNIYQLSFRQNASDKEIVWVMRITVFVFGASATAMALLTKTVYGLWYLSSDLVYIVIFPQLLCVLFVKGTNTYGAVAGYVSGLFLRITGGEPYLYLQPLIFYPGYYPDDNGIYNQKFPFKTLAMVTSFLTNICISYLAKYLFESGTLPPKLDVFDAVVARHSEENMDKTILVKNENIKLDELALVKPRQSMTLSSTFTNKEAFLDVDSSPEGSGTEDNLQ

[11] = molecular target: T3, Polyadenylate-binding protein 1; assay: MLLE domain peptide-binding blockers, IC50 – biochemical, fluorescence polarization, FITC-PAM2 peptide, dose response (AID 602259); assay type: functional; settings: read-out: IC50_Mean
Genome polyprotein = Genome polyprotein (dengue virus type 2, UniProt P29990); assay: flavivirus cap methylation enzyme inhibition – biochemical, confirmation dose response, primary screen (AID 588689); assay type: functional
Chain of Genome polyprotein (P29990 2492-3391 limits assumed): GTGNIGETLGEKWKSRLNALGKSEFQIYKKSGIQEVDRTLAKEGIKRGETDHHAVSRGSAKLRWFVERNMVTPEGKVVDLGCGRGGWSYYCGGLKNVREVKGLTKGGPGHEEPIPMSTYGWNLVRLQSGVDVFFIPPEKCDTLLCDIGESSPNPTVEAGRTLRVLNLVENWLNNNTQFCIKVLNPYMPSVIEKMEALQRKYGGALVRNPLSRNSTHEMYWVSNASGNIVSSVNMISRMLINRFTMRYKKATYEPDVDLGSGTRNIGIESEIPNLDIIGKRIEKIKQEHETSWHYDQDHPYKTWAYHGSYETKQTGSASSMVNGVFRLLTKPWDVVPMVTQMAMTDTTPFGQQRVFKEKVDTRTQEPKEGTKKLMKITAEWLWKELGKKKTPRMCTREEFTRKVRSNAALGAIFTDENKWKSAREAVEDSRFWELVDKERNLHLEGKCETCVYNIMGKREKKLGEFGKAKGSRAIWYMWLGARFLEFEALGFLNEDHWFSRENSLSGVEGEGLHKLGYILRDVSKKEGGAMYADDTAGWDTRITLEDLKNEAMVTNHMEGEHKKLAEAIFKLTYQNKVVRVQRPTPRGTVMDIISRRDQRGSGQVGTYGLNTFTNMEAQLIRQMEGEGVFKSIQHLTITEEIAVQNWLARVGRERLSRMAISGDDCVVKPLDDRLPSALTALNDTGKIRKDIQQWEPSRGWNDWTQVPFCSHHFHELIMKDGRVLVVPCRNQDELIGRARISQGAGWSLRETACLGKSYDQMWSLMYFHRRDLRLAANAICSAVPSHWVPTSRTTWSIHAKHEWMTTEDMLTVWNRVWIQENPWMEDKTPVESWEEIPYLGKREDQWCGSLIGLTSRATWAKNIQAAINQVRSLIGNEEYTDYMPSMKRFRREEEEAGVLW

cells [12] = assay: cells
[13] = viability of uninfected HEp-2 cells – cell-based, HTS, cytotoxicity control for RSV inhibitor project, dose response (AID 2410); assay type: functional; settings: human respiratory syncytial virus
[14] = Trypanosoma cruzi growth suppression in host cells – NIH3T3 host cells, beta-gal luminescence, confirmation (AID 2044); assay type: functional, cell-based;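 note: intracellular parasites grown in NIH/3T3 mouse fibroblasts as host cells; luminescent beta-galactosidase reporter signal from transgenic T. cruzi replicating inside host cells; inhibitors lower the luminescence signal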
[15] = NIH3T3 cell viability loss – ATP luminescence, mouse fibroblasts, counter-screen, dose response (AID 2010); assay type: functional, cell-based;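 note: cells exposed to compound for about 90 hours before reading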
Cytochrome P450 3A4 = Cytochrome P450 3A4 (Homo sapiens, UniProt P08684);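 note: CYP3A4 tested as one member of a cytochrome P450 panel screen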
Chain of Cytochrome P450 3A4 (P08684 whole entry): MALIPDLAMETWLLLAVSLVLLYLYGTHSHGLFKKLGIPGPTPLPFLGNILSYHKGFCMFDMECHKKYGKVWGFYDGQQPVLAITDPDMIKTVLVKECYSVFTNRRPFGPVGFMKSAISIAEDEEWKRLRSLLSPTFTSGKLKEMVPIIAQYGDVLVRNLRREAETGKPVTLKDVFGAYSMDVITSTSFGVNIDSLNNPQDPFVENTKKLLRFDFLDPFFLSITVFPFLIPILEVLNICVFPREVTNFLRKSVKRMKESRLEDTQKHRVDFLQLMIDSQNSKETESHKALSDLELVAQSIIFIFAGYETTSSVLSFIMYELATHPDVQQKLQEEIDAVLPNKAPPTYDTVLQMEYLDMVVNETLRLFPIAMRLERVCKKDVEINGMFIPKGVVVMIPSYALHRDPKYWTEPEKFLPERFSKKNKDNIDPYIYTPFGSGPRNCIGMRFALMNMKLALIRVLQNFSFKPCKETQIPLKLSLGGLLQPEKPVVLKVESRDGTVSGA

[16] = molecular target: Induced myeloid leukemia cell differentiation protein Mcl-1 (Homo sapiens, UniProt Q07820); assay type: functional
Chain of Induced myeloid leukemia cell differentiation protein Mcl-1 (Q07820 whole entry): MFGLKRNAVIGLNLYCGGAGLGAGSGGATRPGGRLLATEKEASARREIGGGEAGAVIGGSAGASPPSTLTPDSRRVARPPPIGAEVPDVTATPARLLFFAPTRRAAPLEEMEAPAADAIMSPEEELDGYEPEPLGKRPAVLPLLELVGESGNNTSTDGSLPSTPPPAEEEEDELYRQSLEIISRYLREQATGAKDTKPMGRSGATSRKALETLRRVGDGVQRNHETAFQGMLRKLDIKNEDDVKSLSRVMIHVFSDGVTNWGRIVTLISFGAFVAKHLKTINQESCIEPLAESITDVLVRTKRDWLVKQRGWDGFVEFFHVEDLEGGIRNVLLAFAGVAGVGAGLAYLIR

[17] = NIH-3T3 fibroblast cytotoxicity, dose response, cytotoxicity control, cell-based, fluorescence, Alamar Blue, secondary assay (AID 2327); assay type: functional;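 note: NIH-3T3 mouse fibroblasts cultured with fluconazole at 8 µg/mL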
[18] = fluconazole-exposed Candida albicans growth modulators – fluorescence, retest, confirmation (AID 2467); assay type: functional, cell-based
[19] = HEK-293T viability loss after treatment – luminescence, T-cell screen hits, cytotoxicity control for TCR NF-kB inhibitor project, dose response (AID 489026); assay type: functional, cell-based;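 note: cells exposed to compound about 14 hours before the viability readout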
INS1 = assay: INS-1E survival protection against cytokine death – cell-based, luminescence, retest, dose response (AID 449756); assay type: functional; settings: Rattus norvegicus;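 note: cell death triggered by IL-1 beta plus TNF-alpha plus IFN-gamma mixture; protective hits raise ATP signal compared with cytokine alone wells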
[20] = Luminescence Cell-Based Dose Confirmation HTS to Identify Inhibitors of Platelet Dense Granule Release. [Related pubchem assays: 1663 (Primary HTS), 1678 (Summary of Project)]; assay type: functional
[21] = molecular target: Luciferin 4-monooxygenase (Photinus pyralis, UniProt P08659); assay: inhibition of purified Photinus pyralis luciferase – biochemical, luminescence, dose response (AID 1891)
Chain of Luciferin 4-monooxygenase (P08659 whole entry): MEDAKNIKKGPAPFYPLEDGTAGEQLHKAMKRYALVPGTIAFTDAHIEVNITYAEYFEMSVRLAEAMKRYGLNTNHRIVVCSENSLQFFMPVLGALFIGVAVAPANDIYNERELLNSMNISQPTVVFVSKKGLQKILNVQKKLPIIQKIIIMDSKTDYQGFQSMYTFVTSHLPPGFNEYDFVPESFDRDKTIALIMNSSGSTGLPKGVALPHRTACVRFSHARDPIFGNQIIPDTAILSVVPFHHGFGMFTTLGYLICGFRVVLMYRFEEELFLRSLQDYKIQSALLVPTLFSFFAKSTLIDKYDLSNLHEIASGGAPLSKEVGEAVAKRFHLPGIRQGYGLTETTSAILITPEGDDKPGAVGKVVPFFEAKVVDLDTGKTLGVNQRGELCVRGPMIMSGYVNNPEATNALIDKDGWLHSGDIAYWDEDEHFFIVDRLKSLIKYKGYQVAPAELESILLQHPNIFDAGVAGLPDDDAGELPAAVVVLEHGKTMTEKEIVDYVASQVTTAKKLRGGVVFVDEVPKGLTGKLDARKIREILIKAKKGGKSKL

[22] = P. falciparum Dd2 growth inhibitors, dose response, SYBR Green, cherry-picked samples (AID 1159567); assay type: functional, cell-based
[23] = growth inhibition of yeast DHODH-expressing 3D7 parasites – SYBR Green, dry powder samples, dose response (AID 1159570); assay type: functional, cell-based;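 note: parasite growth measured after 72 hours of compound exposure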
[24] = growth inhibition of PfATP4-mutant resistant parasites – NITD609-resistant line, SYBR Green, dry powder, dose response (AID 1159571); assay type: functional, cell-based;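 note: parasites synchronized at ring stage by sorbitol before testing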
[25] = Dd2 malaria parasite growth inhibition potency – SYBR Green, dry powder samples, dose response (AID 1159566); assay type: functional, cell-based;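 note: potency for growth inhibition with lower SYBR green DNA signal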
[26] = microbe, parasite or virus in culture; assay type: functional; settings: Mycobacterium tuberculosis
[27] = Luminescence Cell-Based Dose Retest to Confirm Inhibitors of Cancer Stem Cells. [Related pubchem assays (depositor defined):AID2717, AID2721]; assay type: functional; settings: Homo sapiens
Nonstructural protein 1 = Nonstructural protein 1 (Influenza A virus, UniProt Q194T2); assay type: functional, Influenza A virus (A/California/07/2009(H1N1))
Chain of Nonstructural protein 1 (Q194T2 whole entry): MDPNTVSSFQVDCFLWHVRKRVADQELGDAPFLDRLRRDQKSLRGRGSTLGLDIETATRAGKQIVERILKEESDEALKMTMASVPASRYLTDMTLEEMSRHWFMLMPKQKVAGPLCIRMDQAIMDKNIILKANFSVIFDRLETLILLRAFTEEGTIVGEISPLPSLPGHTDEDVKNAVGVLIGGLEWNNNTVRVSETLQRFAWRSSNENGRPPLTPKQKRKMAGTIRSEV

## C=CCN1C(=O)/C(=C/c2cc(C)n(-c3cccnc3)c2C)C(=O)NC1=S
[1]
  EC50: 89.5 µM (active)
Large T antigen
  IC50: 66.7 µM (active)
[2]
  EC50: 53.3 µM (active)
[3]
  AC50: 16.8 µM (active)
[4]
  IC50: > 50 µM (not active)

## O=C(Nc1ccccn1)c1ccc([N+](=O)[O-])o1
Cells [5]
  IC50: 13.6 µM (active)
[6]
  CC50: 13.4 µM (active)
Vero
  CC50: > 25 µM (active)
[7]
  CC50: 26.3 µM (active)

## CCCOc1ccc(N2C(=O)CC(N3CCC(C(=O)OCC)CC3)C2=O)cc1 (configuration not stated)
[8]
  AC50: 3.1 µM (active)

## Cc1ccc(C(=O)/C=C/C(=O)O)cc1
[9]
  IC50: > 66 µM (inactive)
[10]
  IC50: 10.5 µM (active)
[11]
  IC50: > 66 µM (inactive)
Genome polyprotein
  IC50: > 100 µM (active)

## Cc1ccc(NC(=S)Nc2cccc3cnccc23)cc1
[4]
  IC50: > 50 µM (not active)

## CCN(CC)C1=N/C(=C\c2ccc(OC)cc2)C(=O)N1c1ccccc1
Cells [12]
  IC50: 4.49 µM (active)
[13]
  CC50: 9.86 µM (active)

## Cn1c2ccccc2c(=O)c2c(=O)n(Cc3ccco3)c(-c3ccc(Cl)cc3Cl)nc21
Cells [12]
  IC50: 10.2 µM (active)
[13]
  CC50: 15.5 µM (active)
[14]
  EC50: 0.978 µM (active)
[15]
  EC50: > 30 µM (not active)

## Cc1cnc(CNc2cc(-c3ccccc3C)ncn2)cn1
Cytochrome P450 3A4
  AC50: inconclusive

## COc1ccc(N(C)C(=S)Nc2ccc3nc(C)c(C)nc3c2)cc1
[4]
  IC50: > 50 µM (not active)

## Cc1c(NS(=O)(=O)c2cc(NC(=O)CCN3CCCC(C)C3)ccc2Cl)c(=O)n(-c2ccccc2)n1C (configuration not stated)
[16]
  IC50: 4.67 µM (not active)

## c1ccc(Cn2nnc3c(N4CCCCCC4)ncnc32)cc1
Cells [12]
  IC50: 49.5 µM (active)
[13]
  CC50: 17 µM (active)

## O=C(N/N=C/c1ccc(O)c(O)c1)/C(O)=C\C1=NC2(CCCC2)Cc2ccccc21
[16]
  IC50: 3.56 µM (active)

## Cc1cccc(-c2csc(N)c2C(=O)OC(C)C)c1
[4]
  IC50: > 50 µM (not active)

## NC(=O)COc1ccc2c3c(c(=O)oc2c1)CCCCC3
Cells [12]
  IC50: 42.2 µM (active)
[17]
  EC50: > 160 µM (inconclusive)
[18]
  EC50: > 38 µM (not active)

## COc1ccc(C(=O)N(C)Cc2cnn(Cc3ccccc3)c2)cc1S(=O)(=O)N1CCOCC1
[19]
  IC50: > 80 µM (inactive)

## CCOC(=O)CN1C(=O)N[C@@H](c2cccc(F)c2)C(C(C)=O)=C1C
Cells [12]
  IC50: 12.8 µM (active)
[13]
  CC50: 44.1 µM (active)

## CC1(C)CC(=O)C(=CNc2cccc(/N=C/C3=C(O)CC(C)(C)CC3=O)n2)C(=O)C1
[16]
  IC50: 1.31 µM (not active)

## C[C@@]12C(=O)Nc3ccc(Cl)cc3C(=O)N1[C@H]1c3ccccc3OC[C@@H]1[C@@H]2c1ccccc1
[8]
  AC50: 0.611 µM (active)

## COc1ccccc1C(=O)NNC(=S)NC(=O)c1ccco1
[8]
  AC50: 1.42 µM (active)

## Cc1ccc2c(c1)COc1c3ccc(C(=O)N[C@@H](C)CO)cc3nn1-2
Cells [12]
  IC50: 41.5 µM (active)
[13]
  CC50: > 50 µM (active)

## O=C(N/N=C\c1ccc([N+](=O)[O-])s1)c1cncc(Br)c1
[1]
  EC50: 1.09 µM (active)
Cells [5]
  IC50: 12.6 µM (active)
[6]
  CC50: 4.83 µM (active)
[17]
  EC50: 29.4 µM (active)
[2]
  EC50: 0.452 µM (active)
[3]
  AC50: 4.34 µM (active)
[18]
  EC50: 4.15 µM (active)
INS1
  AC50: 7.04 µM (active)
[7]
  CC50: 5.8 µM (active)

## COc1cc2c(cc1OC)C1=C(C#N)CN(CC(=O)O)CN1CC2
[20]
  EC50: > 112 µM (not active)
[21]
  EC50: > 112 µM (not active)
[4]
  IC50: 34.1 µM (active)

## COc1cc(/C=C/c2nc3ccccc3c(=O)n2-c2cccc(O)c2)ccc1O
[16]
  IC50: 8.49 µM (active)

## COc1ccc(-c2ccc([C@H]3[C@H](C#N)N(C(=O)c4cccc(F)c4)[C@H]3CO)cc2)cc1
[22]
  AC50: 2.71 µM (active)
[23]
  AC50: 2.24 µM (active)
[24]
  AC50: 2 µM (active)
[25]
  AC50: 1.85 µM (active)

## C[C@@H]1CN([C@@H](C)CO)C(=O)c2cccc(NC(=O)c3nc4ccccc4s3)c2O[C@H]1CN(C)C(=O)Nc1cccc2ccccc12
[23]
  AC50: 0.595 µM (active)
[24]
  AC50: 0.802 µM (active)
[25]
  AC50: 0.766 µM (active)

## Nc1ccc(-c2nc3cc(-c4nc5ccccc5o4)ccc3[nH]2)cc1
[26]
  CC50: > 40 µM (active)
Cells [12]
  IC50: 33.4 µM (active)
[13]
  CC50: 48.2 µM (active)

## CC(/C=N\Nc1n[nH]c2c3cccc(C)c3nc-2n1)=C\c1ccco1
[16]
  IC50: 3.46 µM (active)

## C/C(=N\NC(=O)c1cc(C)nc2ccccc12)c1ccccn1
[27]
  AC50: 3.37 µM (active)
INS1
  AC50: 0.626 µM (active)
Nonstructural protein 1
  IC50: 2.23 µM (active)
[19]
  IC50: > 80 µM (inactive)

— ChEMBL document CHEMBL1201862, “PubChem BioAssay data set” (2004)
